# Assay results published in PubChem BioAssay AID2060894 (Molecular Pharmacology Branch, DTP, NCI, 2025).
# Test system: K12877-001-R-J1-PDC complex spheroid viability
# Test: Anticancer human tumor K12877-001-R-J1-PDC patient-derived lung adenocarcinoma cell line growth inhibition [RAS]
# Conditions: for viability, T/C: stronger effect = lower value
# Method in brief: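 Agents were tested in combination matrices in half-log decrements from a top concentration at or near clinical Cmax (10 microM if undetermined). Targets were multi-cell spheroids of tumour lines plus HUVEC and MSC stromal cells.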
# 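Note: spheroids exposed to agents for one week before readout.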
# 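Throughout, for viability, T/C: tumour cells co-cultured with HUVEC and mesenchymal stem cells in spheroids.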
smiles,measurement,setting,value
CC(=O)OC12COC1CC(O)C1(C)C(=O)C(O)C3=C(C)C(OC(=O)C(O)C(NC(=O)OC(C)(C)C)c4ccccc4)CC(O)(C(OC(=O)c4ccccc4)C21)C3(C)C (centres undefined) + C=CC(=O)N1CCN(c2nc(OCC3CCCN3C)nc3c(F)c(-c4nc(N)cc(C)c4C(F)(F)F)c(Cl)cc23)C(C)C1,IC50,"curve of first compound, second compound 0.00316 µM",< 31.6 nM
same,IC50,"curve of first compound, second compound 0.01 µM",< 31.6 nM
same,IC50,"curve of first compound, second compound 0.0316 µM",< 31.6 nM
same,IC50,"curve of first compound, second compound 0.1 µM",< 31.6 nM
same,IC50,"curve of first compound, second compound 0.316 µM",< 31.6 nM
same,IC50,"curve of first compound, second compound 1 µM",< 31.6 nM
same,"viability, T/C","second compound 0.00316 µM, first compound 0.0316 µM",5.23%
same,"viability, T/C","second compound 0.00316 µM, first compound 0.1 µM",4.77%
same,"viability, T/C","second compound 0.00316 µM, first compound 0.316 µM",3.44%
same,"viability, T/C","second compound 0.00316 µM, first compound 1 µM",4.18%
same,"viability, T/C","second compound 0.00316 µM, first compound 3.16 µM",4.77%
same,"viability, T/C","second compound 0.00316 µM, first compound 10 µM",16.1%
same,"viability, T/C","second compound 0.01 µM, first compound 0.0316 µM",5.39%
same,"viability, T/C","second compound 0.01 µM, first compound 0.1 µM",5.01%
same,"viability, T/C","second compound 0.01 µM, first compound 0.316 µM",3.61%
same,"viability, T/C","second compound 0.01 µM, first compound 1 µM",2.92%
same,"viability, T/C","second compound 0.01 µM, first compound 3.16 µM",3.84%
same,"viability, T/C","second compound 0.01 µM, first compound 10 µM",13.6%
same,"viability, T/C","second compound 0.0316 µM, first compound 0.0316 µM",6.48%
same,"viability, T/C","second compound 0.0316 µM, first compound 0.1 µM",4.68%
same,"viability, T/C","second compound 0.0316 µM, first compound 0.316 µM",3.7%
same,"viability, T/C","second compound 0.0316 µM, first compound 1 µM",2.91%
same,"viability, T/C","second compound 0.0316 µM, first compound 3.16 µM",3.42%
same,"viability, T/C","second compound 0.0316 µM, first compound 10 µM",10.1%
same,"viability, T/C","second compound 0.1 µM, first compound 0.0316 µM",6.61%
same,"viability, T/C","second compound 0.1 µM, first compound 0.1 µM",4.59%
same,"viability, T/C","second compound 0.1 µM, first compound 0.316 µM",2.95%
same,"viability, T/C","second compound 0.1 µM, first compound 1 µM",3.77%
same,"viability, T/C","second compound 0.1 µM, first compound 3.16 µM",5.42%
same,"viability, T/C","second compound 0.1 µM, first compound 10 µM",11.1%
same,"viability, T/C","second compound 0.316 µM, first compound 0.0316 µM",5.94%
same,"viability, T/C","second compound 0.316 µM, first compound 0.1 µM",3.96%
same,"viability, T/C","second compound 0.316 µM, first compound 0.316 µM",3.29%
same,"viability, T/C","second compound 0.316 µM, first compound 1 µM",3.54%
same,"viability, T/C","second compound 0.316 µM, first compound 3.16 µM",4.12%
same,"viability, T/C","second compound 0.316 µM, first compound 10 µM",10.3%
same,"viability, T/C","second compound 1 µM, first compound 0.0316 µM",4.92%
same,"viability, T/C","second compound 1 µM, first compound 0.1 µM",3.77%
same,"viability, T/C","second compound 1 µM, first compound 0.316 µM",4.87%
same,"viability, T/C","second compound 1 µM, first compound 1 µM",4.09%
same,"viability, T/C","second compound 1 µM, first compound 3.16 µM",4.48%
same,"viability, T/C","second compound 1 µM, first compound 10 µM",11%
CC(=O)OC12COC1CC(O)C1(C)C(=O)C(O)C3=C(C)C(OC(=O)C(O)C(NC(=O)OC(C)(C)C)c4ccccc4)CC(O)(C(OC(=O)c4ccccc4)C21)C3(C)C (centres undefined),"viability, T/C",compound 0.0316 µM,8.58% [middle of 4 runs]
same,"viability, T/C",compound 0.1 µM,6.5% [middle of 4 runs]
same,"viability, T/C",compound 0.316 µM,5.06% [middle of 4 runs]
same,"viability, T/C",compound 1 µM,4.96% [middle of 4 runs]
same,"viability, T/C",compound 3.16 µM,6.68% [middle of 4 runs]
same,"viability, T/C",compound 10 µM,15% [middle of 4 runs]
same,IC50,curve of compound,< 31.6 nM
